System: HBV
Assay: HepAD38 antiviral assay: reduction of viral product accumulation (virion DNA by qPCR, HBsAg or HBeAg by ELISA)
Assay type: cell-based, hepatitis B virus
Details: Hepatitis B virus, 120 h; HepAD38 cells, five days after compound addition; 50% reduction of viral product vs no drug controls; read-out: HepAD38 EC50
Procedure, shortened: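 Tetracycline-free HepAD38 cells exposed to compound (DMSO stock diluted 1:200) for 5 days, or 8 days with media and compound refreshed on d2 and d5. Virion DNA quantified by qPCR after lysis; HBsAg or HBeAg measured by ELISA on diluted samples.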

Row | SMILES | EC50 [nM]
1 | O=C(Nc1ccc(F)c(F)c1)c1ccc(Cl)c(S(=O)(=O)C2CC3CCC(C2)C3=O)c1 (stereo not shown) [Example 204] | 100 to 200
2 | O=C(Nc1ccc(F)c(F)c1)c1ccc(Cl)c(S(=O)(=O)[C@H]2CC3CCC(C2)[C@]3(O)C(=O)O)c1 [Example 205] | > 200
3 | O=C(Nc1ccc(F)c(F)c1)c1ccc(Cl)c(S(=O)(=O)CC2CC(O)(C(O)CO)C2)c1 (stereo not shown) [Example 207] | > 200
4 | C[C@H](O)COCC1(O)CC(CS(=O)(=O)c2cc(C(=O)Nc3ccc(F)c(F)c3)ccc2Cl)C1 (stereo partly shown) [Example 208] | > 200
5 | C[C@@H](O)COCC1(O)CC(CS(=O)(=O)c2cc(C(=O)Nc3ccc(F)c(F)c3)ccc2Cl)C1 (stereo partly shown) [Example 209] | > 200
6 | C[C@]1(O)C2CCC1C[C@@H](S(=O)(=O)c1cc(C(=O)Nc3ccnnc3)ccc1Cl)C2 [Example 212] | > 200
7 | C[C@]1(O)C2CCC1C[C@@H](S(=O)(=O)c1cc(C(=O)Nc3cccnn3)ccc1Cl)C2 [Example 213] | > 200
8 | C[C@@]1(O)C2CC[C@H]1C[C@H](S(=O)(=O)c1cc(C(=O)Nc3cnccn3)ccc1Cl)C2 [Example 214] | > 200
9 | O=C(Nc1ccc(F)c(F)c1)c1ccc(Cl)c(S(=O)(=O)CC2CCC3(CC2)OCCO3)c1 [Example 216] | 100 to 200
10 | C[C@]1(O)C2CCC1C[C@@H](S(=O)(=O)c1cc(C(=O)Nc3ncccn3)ccc1Cl)C2 [Example 217] | > 200
11 | O=C(Nc1ccc(F)c(F)c1)c1ccc(Cl)c(S(=O)(=O)CC2CCC(F)(F)CC2)c1 [Example 219] | > 200
12 | O=C(Nc1ccc(F)c(F)c1)c1ccc(Cl)c(S(=O)(=O)C2CC(O)(CO)C2)c1 (stereo not shown) [Example 220] | > 200
13 | C[C@]1(O)C2CCC1C[C@@H](S(=O)(=O)c1cc(C(=O)Nc3ccncn3)ccc1Cl)C2 [Example 221] | > 200
14 | CC(=O)C[C@]1(O)CC[C@H](CS(=O)(=O)c2cc(C(=O)Nc3ccc(F)c(F)c3)ccc2Cl)CC1 [Example 222] | 100 to 200
15 | CC(=O)C[C@]1(O)CC[C@@H](CS(=O)(=O)c2cc(C(=O)Nc3ccc(F)c(F)c3)ccc2Cl)CC1 [Example 223] | 100 to 200
16 | CC(O)C[C@]1(O)CC[C@@H](CS(=O)(=O)c2cc(C(=O)Nc3ccc(F)c(F)c3)ccc2Cl)CC1 (stereo partly shown) [Example 224] | 100 to 200
17 | CC(O)C[C@]1(O)CC[C@H](CS(=O)(=O)c2cc(C(=O)Nc3ccc(F)c(F)c3)ccc2Cl)CC1 (stereo partly shown) [Example 225] | 100 to 200
18 | O=C(Nc1ccc(F)c(F)c1)c1ccc(Cl)c(S(=O)(=O)CC2CCC(F)CC2)c1 (stereo not shown) [Example 226] | > 200
19 | O=C(Nc1ccc(F)c(F)c1)c1ccc(Cl)c(S(=O)(=O)CC2CC=CCC2)c1 (stereo not shown) [Example 227] | > 200
20 | CC(C)(O)C[C@]1(O)CC[C@@H](CS(=O)(=O)c2cc(C(=O)Nc3ccc(F)c(F)c3)ccc2Cl)CC1 [Example 228] | > 200
21 | C[C@H](O)COCC1(O)CC(S(=O)(=O)c2cc(C(=O)Nc3ccc(F)c(F)c3)ccc2Cl)C1 (stereo partly shown) [Example 230] | > 200
22 | CC(C)(C1CCC2(CC1)OCCO2)S(=O)(=O)c1cc(C(=O)Nc2ccc(F)c(F)c2)ccc1Cl [Example 231] | > 200
23 | CC(C)(C1CCC(F)(F)CC1)S(=O)(=O)c1cc(C(=O)Nc2ccc(F)c(F)c2)ccc1Cl [Example 232] | > 200
24 | CCC1(O)CC(S(=O)(=O)c2cc(C(=O)Nc3ccc(F)c(F)c3)ccc2Cl)C1 (stereo not shown) [Example 233] | > 200
25 | C[C@@H](O)COCC1(O)CC(S(=O)(=O)c2cc(C(=O)Nc3ccc(F)c(F)c3)ccc2Cl)C1 (stereo partly shown) [Example 234] | > 200
26 | CC(C)([C@H]1CC[C@@H](O)CC1)S(=O)(=O)c1cc(C(=O)Nc2ccc(F)c(F)c2)ccc1Cl [Example 235] | > 200

Row | SMILES | EC50 [nM]
27 | CC(C)([C@H]1CC[C@H](O)CC1)S(=O)(=O)c1cc(C(=O)Nc2ccc(F)c(F)c2)ccc1Cl [Example 236] | > 200
28 | CC(C)([C@H]1CC[C@@](C)(O)CC1)S(=O)(=O)c1cc(C(=O)Nc2ccc(F)c(F)c2)ccc1Cl [Example 237] | > 200
29 | CC(C)([C@H]1CC[C@](C)(O)CC1)S(=O)(=O)c1cc(C(=O)Nc2ccc(F)c(F)c2)ccc1Cl [Example 238] | > 200
30 | C=CCC1(O)CC(S(=O)(=O)c2cc(C(=O)Nc3ccc(F)c(F)c3)ccc2Cl)C1 (stereo not shown) [Example 239] | > 200
31 | O=C(Nc1ccc(F)c(F)c1)c1ccc(Cl)c(S(=O)(=O)C2CC(O)(CCO)C2)c1 (stereo not shown) [Example 240] | > 200
32 | O=C(Nc1ccc(F)c(F)c1)c1ccc(Cl)c(S(=O)(=O)C2CC(O)(CCCO)C2)c1 (stereo not shown) [Example 241] | > 200
33 | O=C(O)CC1(O)CC(S(=O)(=O)c2cc(C(=O)Nc3ccc(F)c(F)c3)ccc2Cl)C1 (stereo not shown) [Example 243] | > 200
34 | COC(=O)CNC(=O)CC1(O)CC(S(=O)(=O)c2cc(C(=O)Nc3ccc(F)c(F)c3)ccc2Cl)C1 (stereo not shown) [Example 244] | > 200
35 | O=C(CC1(O)CC(S(=O)(=O)c2cc(C(=O)Nc3ccc(F)c(F)c3)ccc2Cl)C1)NCCO (stereo not shown) [Example 245] | > 200
36 | C[C@@H](CO)NC(=O)CC1(O)CC(S(=O)(=O)c2cc(C(=O)Nc3ccc(F)c(F)c3)ccc2Cl)C1 (stereo partly shown) [Example 247] | > 200
37 | COC(=O)CCNC(=O)CC1(O)CC(S(=O)(=O)c2cc(C(=O)Nc3ccc(F)c(F)c3)ccc2Cl)C1 (stereo not shown) [Example 248] | > 200
38 | O=C(CC1(O)CC(S(=O)(=O)c2cc(C(=O)Nc3ccc(F)c(F)c3)ccc2Cl)C1)NCCCO (stereo not shown) [Example 249] | > 200
39 | COC(=O)[C@H]1C[C@H](S(=O)(=O)c2cc(C(=O)Nc3ccc(F)c(F)c3)ccc2Cl)C1 [Example 250a] | > 200
40 | COC(=O)[C@H]1C[C@@H](S(=O)(=O)c2cc(C(=O)Nc3ccc(F)c(F)c3)ccc2Cl)C1 [Example 250b] | > 200
41 | O=C(Nc1ccc(F)c(F)c1)c1ccc(Cl)c(S(=O)(=O)C2CC(C(=O)O)C2)c1 (stereo not shown) [Example 251] | > 200
42 | O=C(Nc1ccc(F)c(F)c1)c1ccc(Cl)c(S(=O)(=O)[C@H]2C[C@H](CO)C2)c1 [Example 252a] | > 200
43 | O=C(Nc1ccc(F)c(F)c1)c1ccc(Cl)c(S(=O)(=O)[C@H]2C[C@@H](CO)C2)c1 [Example 252b] | > 200
44 | COC(=O)CNC(=O)[C@H]1C[C@H](S(=O)(=O)c2cc(C(=O)Nc3ccc(F)c(F)c3)ccc2Cl)C1 [Example 253a] | > 200
45 | COC(=O)CNC(=O)[C@H]1C[C@@H](S(=O)(=O)c2cc(C(=O)Nc3ccc(F)c(F)c3)ccc2Cl)C1 [Example 253b] | > 200
46 | O=C(Nc1ccc(F)c(F)c1)c1ccc(Cl)c(S(=O)(=O)C2CC(C(=O)NCCO)C2)c1 (stereo not shown) [Example 254] | > 200
47 | COC(=O)[C@H](C)NC(=O)C1CC(S(=O)(=O)c2cc(C(=O)Nc3ccc(F)c(F)c3)ccc2Cl)C1 (stereo partly shown) [Example 255] | > 200
48 | C[C@@H](CO)NC(=O)[C@H]1C[C@H](S(=O)(=O)c2cc(C(=O)Nc3ccc(F)c(F)c3)ccc2Cl)C1 [Example 256a] | > 200
49 | C[C@@H](CO)NC(=O)[C@H]1C[C@@H](S(=O)(=O)c2cc(C(=O)Nc3ccc(F)c(F)c3)ccc2Cl)C1 [Example 256b] | > 200
50 | COC(=O)CCNC(=O)[C@H]1C[C@H](S(=O)(=O)c2cc(C(=O)Nc3ccc(F)c(F)c3)ccc2Cl)C1 [Example 257a] | > 200
51 | COC(=O)CCNC(=O)[C@H]1C[C@@H](S(=O)(=O)c2cc(C(=O)Nc3ccc(F)c(F)c3)ccc2Cl)C1 [Example 257b] | > 200
52 | O=C(Nc1ccc(F)c(F)c1)c1ccc(Cl)c(S(=O)(=O)C2CC(C(=O)NCCCO)C2)c1 (stereo not shown) [Example 258] | > 200

From patent US11596611B2, “Hepatitis B antiviral agents” (ENANTA PHARMACEUTICALS, INC., priority 2017, dated 2023)
